Test results reported in US20260223850A1, “SUBSTITUTED PYRROLIDONE COMPOUND, PREPARATION METHOD THEREFOR, COMPOSITION AND APPLICATION THEREOF” (QINGDAO KINGAGROOT CHEMICAL COMPOUND CO., LTD., priority 2023, published 2026).

Experiments:
Test in all cases: Seedling stage sealing experiment for water-seeding
Format in all cases: in vivo
Leptochloa chinensis = settings: 120 g a.i./ha, 15 days, fresh weight control rate
Source text: (1) Seedling Stage Sealing Experiment for Water-Seeding:
The activity level criteria for plant damage (i.e., growth control rate) are as follows: • Level 9: completely dead; • Level 8: growth control rate greater than or equal to 90% and less than 100%; • Level 7: growth control rate greater than or equal to 80% and less than 90%; • Level 6: growth control rate greater than or equal to 70% and less than 80%; • Level 5: growth control rate greater than or equal to 50% and less than 70%; • Level 4: growth control rate greater than or equal to 30% and less than 50%; • Level 3: growth control rate greater than or equal to 20% and less than 30%; • Level 2: growth control rate greater than or equal to 10% and less than 20%; • Level 1: growth control rate less than 10%; • Level 0: no effect.
The above growth control rates are fresh weight control rates.
Echinochloa phyllopogon, Digitaria sanguinalis, Huaidao (rice cultivar), etc. were broadcasted on the surface of nutrition bowls filled with soil and fully covered by soil. The foregoing well-prepared nutrition bowls were then placed in a cultivation box with water filled to a suitable height to keep the soil in the nutrition bowls moist. A test compound of the present invention was individually dissolved with acetone, then diluted into solution of a certain concentration using a certain amount of water, and sprayed using a spray tower. The plants were placed on a greenhouse seedbed and cultured for 15 days, and the experimental results were then collected. The compound was applied at 120, 60, 30 and 15 g a.i./ha in triplicate, and the results were averaged.

Echinochloa crusgalli = settings: 120 g a.i./ha, seedling stage sealing, 15 days, fresh weight control rate
Echinochloa phyllopogon = settings: 120 g a.i./ha, seedling stage sealing, 15 days, fresh weight control rate
Outline: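 Read-out: 0–9 damage level from fresh-weight control rate (9 = completely dead, 1 = under 10%, 0 = no effect), averaged over triplicates, taken 15 days after spraying. Doses were 120, 60, 30 and 15 g a.i./ha, acetone/water solution, spray tower.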

Row | SMILES | Leptochloa chinensis activity level (growth control rate) (Leptochloa chinensis) | Echinochloa crusgalli activity level (growth control rate) (Echinochloa crusgalli) | Echinochloa phyllopogon activity level (growth control rate) (Echinochloa phyllopogon)
1 | CC(C)c1cccc([C@H]2CN(C)C(=O)[C@@H]2C(=O)Nc2cnn(C)c2Cl)c1 [20′] | 9 | 9 | 8 (Level 8: growth control rate greater than or equal to 90% and less than 100%)
2 | COc1cccc([C@H]2CN(C)C(=O)[C@@H]2C(=O)Nc2cnn(C)c2Cl)c1 [28′] | 9 | 8 (Level 8: growth control rate greater than or equal to 90% and less than 100%) | 6 (Level 6: growth control rate greater than or equal to 70% and less than 80%)
3 | CN1C[C@H](c2cccc(OC(F)(F)F)c2)[C@@H](C(=O)Nc2cnn(C)c2Cl)C1=O [33′] | 9 | 9 | 8 (Level 8: growth control rate greater than or equal to 90% and less than 100%)
4 | CN1C[C@H](c2cccc(Oc3ccccc3)c2)[C@@H](C(=O)Nc2cnn(C)c2Cl)C1=O [50′] | 6 (Level 6: growth control rate greater than or equal to 70% and less than 80%) | – | –
5 | COc1cc([C@H]2CN(C)C(=O)[C@@H]2C(=O)Nc2cnn(C)c2Cl)cc(C(F)(F)F)c1 [75′] | 9 | 9 | 6 (Level 6: growth control rate greater than or equal to 70% and less than 80%)
6 | CN1C[C@H](c2cccc(C(F)(F)F)c2)[C@@H](C(=O)Nc2cnn(CCF)c2Cl)C1=O [98′] | 9 | 9 | 9
7 | CN1C[C@H](c2cccc(C(F)(F)F)c2)[C@@H](C(=O)Nc2cnn(C)c2Br)C1=O [120′] | 9 | 9 | 8 (Level 8: growth control rate greater than or equal to 90% and less than 100%)
8 | CN1C[C@H](c2cccc(I)c2)[C@@H](C(=O)Nc2cnn(C)c2Cl)C1=O [125′] | 9 | 9 | 9
9 | CN1C[C@H](c2cccc(Br)c2)[C@@H](C(=O)Nc2cnn(C)c2Cl)C1=O [126′] | 9 | 9 | 9
10 | Cc1cccc([C@H]2CN(C)C(=O)[C@@H]2C(=O)Nc2cnn(C3CC3)c2Cl)c1 [128′] | 9 | 9 | 8 (Level 8: growth control rate greater than or equal to 90% and less than 100%)
11 | Cc1cccc([C@H]2CN(C)C(=O)[C@@H]2C(=O)Nc2cnn(CC(F)(F)F)c2Cl)c1 [129′] | 9 | 9 | 8 (Level 8: growth control rate greater than or equal to 90% and less than 100%)
12 | Cc1cccc([C@H]2CN(C)C(=O)[C@@H]2C(=O)Nc2cnn(C(C)C)c2Cl)c1 [130′] | 9 | 9 | 9
13 | CCc1c(NC(=O)[C@H]2C(=O)N(C)C[C@@H]2c2cccc(C)c2)cnn1C [135′] | 9 | 9 | 7 (Level 7: growth control rate greater than or equal to 80% and less than 90%)
14 | Cc1cccc([C@H]2CN(C)C(=O)[C@@H]2C(=O)Nc2c(O)nn(C)c2F)c1 [147′] | 9 | 9 | 8 (Level 8: growth control rate greater than or equal to 90% and less than 100%)
15 | C=Cc1cccc([C@H]2CN(C)C(=O)[C@@H]2C(=O)Nc2cnn(C)c2Cl)c1 [149′] | 5 (Level 5: growth control rate greater than or equal to 50% and less than 70%) | 5 (Level 5: growth control rate greater than or equal to 50% and less than 70%) | –
16 | CN1C[C@H](c2cccc(C3CCCC3)c2)[C@@H](C(=O)Nc2cnn(C)c2Cl)C1=O [152′] | 9 | 9 | 8 (Level 8: growth control rate greater than or equal to 90% and less than 100%)
17 | CN1C[C@H](c2cccc(C(F)F)c2)[C@@H](C(=O)Nc2cnn(C)c2Cl)C1=O [154′] | 9 | 9 | 8 (Level 8: growth control rate greater than or equal to 90% and less than 100%)
18 | CN1C[C@H](c2cccc(C(F)(F)F)c2)[C@@H](C(=O)Nc2cnn(C(C)(C)C)c2Cl)C1=O [157′] | 7 (Level 7: growth control rate greater than or equal to 80% and less than 90%) | 5 (Level 5: growth control rate greater than or equal to 50% and less than 70%) | –
19 | CN1C[C@H](c2cccc(C(F)(F)F)c2)[C@@H](C(=O)Nc2cnn(C(F)F)c2Cl)C1=O [158′] | 9 | 9 | 8 (Level 8: growth control rate greater than or equal to 90% and less than 100%)
20 | CN1C[C@H](c2cccc(C(F)(F)F)c2)[C@@H](C(=O)Nc2cnn(CCCl)c2Cl)C1=O [160′] | 9 | 6 (Level 6: growth control rate greater than or equal to 70% and less than 80%) | 5 (Level 5: growth control rate greater than or equal to 50% and less than 70%)
21 | CN1C[C@H](c2cccc(C(F)(F)F)c2)[C@@H](C(=O)Nc2cnn(CC(F)(F)F)c2Cl)C1=O [161′] | 9 | 9 | 8 (Level 8: growth control rate greater than or equal to 90% and less than 100%)
22 | CN1C[C@H](c2cccc(C(F)(F)F)c2)[C@@H](C(=O)Nc2cnn(CC3CC3)c2Cl)C1=O [165′] | 6 (Level 6: growth control rate greater than or equal to 70% and less than 80%) | – | –
23 | CN1C[C@H](c2cccc(C(F)(F)F)c2)[C@@H](C(=O)Nc2cnn(C)c2I)C1=O [186′] | 9 | 9 | 7 (Level 7: growth control rate greater than or equal to 80% and less than 90%)
24 | CCc1c(NC(=O)[C@H]2C(=O)N(C)C[C@@H]2c2cccc(C(F)(F)F)c2)cnn1C [190′] | 9 | 9 | 8 (Level 8: growth control rate greater than or equal to 90% and less than 100%)
25 | COCc1c(NC(=O)[C@H]2C(=O)N(C)C[C@@H]2c2cccc(C(F)(F)F)c2)cnn1C [193′] | 9 | 9 | 7 (Level 7: growth control rate greater than or equal to 80% and less than 90%)
26 | COc1cc(OC)cc([C@H]2CN(C)C(=O)[C@@H]2C(=O)Nc2cnn(C)c2C2CC2)c1 [301′] | 6 (Level 6: growth control rate greater than or equal to 70% and less than 80%) | – | –
27 | COc1cc([C@H]2CN(C)C(=O)[C@@H]2C(=O)Nc2cnn(C)c2Cl)ccc1C(F)(F)F [316′] | 6 (Level 6: growth control rate greater than or equal to 70% and less than 80%) | 6 (Level 6: growth control rate greater than or equal to 70% and less than 80%) | –
28 | CN1CC(c2cccc(OCC3CC3)c2)C(C(=O)Nc2cnn(C)c2Cl)C1=O (stereo not drawn) [Compound 39] | 9 | 6 (Level 6: growth control rate greater than or equal to 70% and less than 80%) | –
29 | CN1CC(c2cccc(OC3CCCC3)c2)C(C(=O)Nc2cnn(C)c2Cl)C1=O (stereo not drawn) [Compound 41] | 6 (Level 6: growth control rate greater than or equal to 70% and less than 80%) | 5 (Level 5: growth control rate greater than or equal to 50% and less than 70%) | –
30 | Cn1ncc(NC(=O)C2C(=O)NCC2c2cccc(C(F)(F)F)c2)c1Cl (stereo not drawn) [Compound 100] | 6 (Level 6: growth control rate greater than or equal to 70% and less than 80%) | 6 (Level 6: growth control rate greater than or equal to 70% and less than 80%) | –
